“Also recorded” adds a separate entry of the source. Like-named read-outs stand apart in the source and are kept apart here. Positions of bridges follow the written chain, without caps; N, C: chain ends. Non-standard residues stand in square brackets, D forms with d. Residues, ends and D or L forms follow the SMILES beside them. Phe(3-Cl) = N[C@@H](Cc1cccc(Cl)c1)C(=O)O; Phe(4-Cl) = N[C@@H](Cc1ccc(Cl)cc1)C(=O)O; Phe(3-F) = N[C@@H](Cc1cccc(F)c1)C(=O)O; Cha = N[C@@H](CC1CCCCC1)C(=O)O; AEEA = NCCOCCOCC(=O)O; Dap = NC[CH](N)C(=O)O; Aoc = NCCCCCCCC(=O)O
Assays:
[1] = biological target: S. aureus AgrC in group-I (Staphylococcus aureus, UniProt A0A0H2XKA3); experiment: AgrC inhibition YFP reporter gene assay, S. aureus group-I (AH1677); assay type: cell-based; details: for AgrC activity, preliminary screening: 10 μM where stated, YFP fluorescence relative to 1% DMSO control
Description: (§1) Reporter Gene Assays: The peptidomimetics were assayed for AgrC I-IV inhibition using the four YFP reporter strains listed in Table 1. Peptide stock solutions were diluted with DMSO in serial dilutions, and 2 μL of the diluted solution was added to each of the wells in a black, clear-bottom 96-well microtiter plate (Costar). An overnight culture of S. aureus YFP strain (Table 1) was diluted 1:50 with fresh BHI (pH 7.35). A […] of diluted culture was added to each well of the microtiter plate containing peptide (resulting in a 1% DMSO solution). Plates were incubated at 37° C. with shaking at 200 rpm for 24 h. Fluorescence (excitation 500 nm/emission 540 nm) and optical density at 600 nm (OD600) of each well were then recorded using a BioTek Synergy 2 plate reader. […] Full dose response curves are provided in Figures S3A-D, S4A-D, S5A-D, S6A-D and S7A-F.
(§2) A first compound library of AIP mimetics was screened for AgrC modulatory activity in all four groups of S. aureus using strains containing yfp reporter. These strains are summarized in Table 1, and include the multidrug-resistant strain USA300 LAC.[17] In these S. aureus reporters, binding of the native AIP to AgrC activates YFP production and can be measured using fluorescence. Thus, compounds capable of inhibiting native AIP binding produce a reduction in fluorescence. Preliminary compound screening was performed at 10 μM in each strain; the full results of preliminary screening are shown in FIGS. 4A-4D. Key findings from these initial screens are summarized here. To simplify the discussion, the full library will be described as three smaller sub-libraries. In the first sub-library (termed nxLX), there is a linker with n=x methylenes, residue 3 is Leu, and residue 4 (X) is Leu, Ile, or Phe (FIG. 2A). The second and third sub-libraries (nxIX and nxFX) are identical to the first sub-library except that there is an Ile or Phe at residue 3, respectively.

[2] = biological target: S. aureus AgrC in group-II (Staphylococcus aureus, UniProt O33587); experiment: AgrC inhibition YFP reporter gene assay, S. aureus group-II (AH430); assay type: cell-based; details: for AgrC activity, preliminary screening: 10 μM where stated, YFP fluorescence relative to 1% DMSO control
Description: as §1, §2

[3] = biological target: S. aureus AgrC in group-III (Staphylococcus aureus, UniProt O33590); experiment: AgrC inhibition YFP reporter gene assay, S. aureus group-III (AH1747); assay type: cell-based; details: for AgrC activity, preliminary screening: 10 μM where stated, YFP fluorescence relative to 1% DMSO control
Description: as §1, §2

[4] = biological target: S. aureus AgrC in group-IV (Staphylococcus aureus, UniProt Q309Z2); experiment: AgrC inhibition YFP reporter gene assay, S. aureus group-IV (AH1872); assay type: cell-based; details: for AgrC activity, preliminary screening: 10 μM where stated, YFP fluorescence relative to 1% DMSO control
Description: as §1, §2

Solubility in water = assay type: physicochemical
[5] = read-out: IC50 Group-I, Table 3, against S. aureus AgrC
[6] = read-out: IC50 Group-II, Table 3, against S. aureus AgrC
[7] = read-out: IC50 Group-III, Table 3, against S. aureus AgrC
[8] = read-out: IC50 Group-IV, Table 3, against S. aureus AgrC
[9] = read-out: Group-I IC50, 95% CI, YFP reporter strain, 24 h, value (95% CI)
[10] = read-out: Group-II IC50, 95% CI, YFP reporter strain, 24 h, value (95% CI)
[11] = read-out: Group-III IC50, 95% CI, YFP reporter strain, 24 h, value (95% CI)
[12] = read-out: Group-IV IC50, 95% CI, YFP reporter strain, 24 h, value (95% CI)

SMILES	IC50 [1, 5]	IC50 [2, 6]	IC50 [3, 7]	IC50 [4, 8]	AgrC activity, preliminary screening ([1]; group-I)	IC50 [1, 9]	AgrC activity, preliminary screening ([2]; group-II)	IC50 [2, 10]	AgrC activity, preliminary screening ([3]; group-III)	IC50 [3, 11]	AgrC activity, preliminary screening ([4]; group-IV)	water solubility (Solubility in water)	IC50 [4, 12]	other results
CC(=O)N[C@H]1CSC(=O)[C@H](Cc2cccc(F)c2)NC(=O)[C@H](CC2CCCCC2)NC(=O)CCCCCCCNC1=O [n7Cha3fF] (Ac-C[Aoc][Cha][Phe(3-F)]; thioester 1-C)	429 nM	2340 nM	19 nM	1160 nM	–	–	–	–	–	–	–	–	–	–
CC(=O)NC1CNC(=O)C(Cc2ccccc2)NC(=O)C(Cc2ccccc2)NC(=O)CCCCCCCNC1=O (stereo not shown) [n7FF amide] (Ac-[Dap][Aoc]FF; lactam 1-C; configuration not given here)	–	–	–	–	far less active	3940 nM	minimal levels	2200 nM	minimal levels	573 nM	virtually no inhibition	markedly more soluble in water than their parent thiolactones	–	–
CC(=O)N[C@H]1CSC(=O)[C@H](Cc2ccccc2)NC(=O)[C@H](Cc2ccccc2)NC(=O)CCCCCCCNC1=O [n7FF] (Ac-C[Aoc]FF; thioester 1-C)	–	–	–	–	minimal levels	340 nM	minimal levels	495 nM	minimal levels	34.8 nM	minimal levels	relatively low water solubilities; also recorded: less soluble than AIP-III D4A in water	985 nM	IC50 relative to that of t-AIP-II ([1]; group-I): 3-7 fold; IC50 relative to that of t-AIP-II ([2]; group-II): 3-7 fold; IC50 relative to that of t-AIP-II ([3]; group-III): 3-7 fold; IC50 relative to that of t-AIP-II ([4]; group-IV): 3-7 fold
CC(=O)N[C@H]1CSC(=O)[C@H](Cc2cccc(F)c2)NC(=O)[C@H](CC2CCCCC2)NC(=O)COCCOCCNC1=O [n7OCha3fF] (Ac-C[AEEA][Cha][Phe(3-F)]; thioester 1-C)	109 nM	1380 nM	35 nM	597 nM	–	–	–	–	–	–	–	–	–	–
CC(=O)N[C@H]1CSC(=O)[C@H](Cc2ccccc2)NC(=O)[C@H](CC2CCCCC2)NC(=O)COCCOCCNC1=O [n7OChaF] (Ac-C[AEEA][Cha]F; thioester 1-C)	998 nM	790 nM	205 nM	1080 nM	–	–	–	–	–	–	–	–	–	–
CC(=O)N[C@H]1CSC(=O)[C@H](Cc2cccc(Cl)c2)NC(=O)[C@H](Cc2ccccc2)NC(=O)COCCOCCNC1=O [n7OF3clF] (Ac-C[AEEA]F[Phe(3-Cl)]; thioester 1-C)	225 nM	217 nM	1140 nM	–	–	–	–	–	–	–	–	–	–	–
CC(=O)N[C@H]1CSC(=O)[C@H](Cc2cccc(F)c2)NC(=O)[C@H](Cc2ccccc2)NC(=O)COCCOCCNC1=O [n7OF3fF] (Ac-C[AEEA]F[Phe(3-F)]; thioester 1-C)	40 nM	1210 nM	171 nM	> 5000 nM	–	–	–	–	–	–	–	–	–	–
CC(=O)N[C@H]1CSC(=O)[C@H](Cc2ccc(Cl)cc2)NC(=O)[C@H](Cc2ccccc2)NC(=O)COCCOCCNC1=O [n7OF4clF] (Ac-C[AEEA]F[Phe(4-Cl)]; thioester 1-C)	2590 nM	113 nM	2480 nM	> 5000 nM	–	–	–	–	–	–	–	–	–	–
CC(=O)NC1CNC(=O)C(Cc2ccccc2)NC(=O)C(Cc2ccccc2)NC(=O)COCCOCCNC1=O (stereo not shown) [n7OFF amide] (Ac-[Dap][AEEA]FF; lactam 1-C; configuration not given here)	–	–	–	–	no significant activity	> 10000 nM	no significant activity	> 10000 nM	no significant activity	> 10000 nM	no significant activity	markedly more soluble in water than their parent thiolactones	> 10000 nM	–
CC(=O)N[C@H]1CSC(=O)[C@H](Cc2ccccc2)NC(=O)[C@H](Cc2ccccc2)NC(=O)COCCOCCNC1=O [n7OFF] (Ac-C[AEEA]FF; thioester 1-C)	181 nM	583 nM	332 nM	5940 nM	approximately as active as t-AIP-II, n7FF, and n8FF	181 nM	approximately as active as t-AIP-II, n7FF, and n8FF	583 nM	modestly active	332 nM	modestly active	–	5940 nM	more potent than n7FF ([1]; group-I): ~2 fold; more soluble in water than n7FF (Solubility in water): approximately 100 fold
CC(=O)N[C@H]1CNC(=O)[C@H](Cc2ccccc2)NC(=O)[C@H](Cc2ccccc2)NC(=O)CCCCCCCCNC1=O [n8FF amide]	–	–	–	–	far less active	4740 nM	minimal levels	1340 nM	minimal levels	2610 nM	virtually no inhibition	markedly more soluble in water than their parent thiolactones	–	–
CC(=O)NC1CSC(=O)C(Cc2ccccc2)NC(=O)C(Cc2ccccc2)NC(=O)CCCCCCCCNC1=O (stereo not shown) [n8FF]	–	–	–	–	–	468 nM	–	479 nM	–	125 nM	–	relatively low water solubilities; also recorded: less soluble than AIP-III D4A in water	3490 nM	less potent than n7FF ([3]; group-III): 4 fold; less potent than n7FF ([4]; group-IV): 4 fold

From patent publication US12139464B2, “Simplified structural mimetics of AIPS as quorum sensing inhibitors” (Wisconsin Alumni Research Foundation, priority 2016, dated 2024)
